Test results as given in publication PMC9317670, “Temporal and Wash-Out Studies Identify Medicines for Malaria Venture Pathogen Box Compounds with Fast-Acting Activity against Both Trypanosoma cruzi and Trypanosoma brucei” (Microorganisms, 2022).
Where two headings read alike, the source gives them in different places.

Columns and labels:
[1] = test system: T. cruzi; assay: T. cruzi compound wash off assay (48 h with compound, wash off, 72 h without); assay type: cell-based, Trypanosoma cruzi; details: T. cruzi; for Fold Change of IC50, wash off vs 48 h: IC50 from 48 h incubation to IC50 following wash off and further 72 h; for Emax / IC50 / Emax Wash Off: 48 h incubation, wash off, further 72 h; for IC50: read-out: IC50 Wash Off
[2] = test system: HEK293 cells; assay: HEK293 cytotoxicity assay; assay type: cell-based, human; details: HEK293, 72 h, NA = not active, highest dose 79 µM unless given
[3] = test system: T.b. brucei bloodstream 427 strain parasites; assay: T.b. brucei 72 h REDOX-based (resazurin) viability assay; assay type: cell-based, Trypanosoma brucei brucei; details: for Emax / IC50 / Emax % (T.b. brucei): 72 h; for SI (T.b. brucei) HEK: selectivity index in relation to HEK293 cells; for SI (T.b. brucei) (HEP): selectivity index in relation to HEPG2 cells
[4] = test system: T. cruzi Tulahuen strain parasites in 3T3 host cells; assay: T. cruzi 48 h image-based assay; assay type: cell-based, Trypanosoma cruzi; details: for Emax / IC50 / Emax % (T. cruzi): 48 h; for Emax: read-out: Emax % (T. cruzi) (converted); for IC50: read-out: IC50 (T. cruzi); for SI (T. cruzi) 3T3: selectivity index in relation to 3T3 host cells, highest dose 3T3 73 µM; for SI (T. cruzi) HEK: selectivity index in relation to HEK293 cells; for SI (T. cruzi) (HEP): selectivity index in relation to HEPG2 cells
[5] = test system: T.b. brucei; assay: T.b. brucei temporal viability (time-kill) assay, 24 h, PrestoBlue; assay type: cell-based, Trypanosoma brucei brucei; details: for Emax: read-out: Emax 24 h T.b. brucei (converted); for IC50: read-out: IC50 24 h T.b. brucei
Description: Time-kill assays was undertaken as previously described, using the REDOX reagent PrestoBlue® [24]. […] Control compounds were added at the same concentrations at outlined for the resazurin-based assays.

[6] = test system: T. cruzi and T.b. brucei; assay: Speed of action and cidality classification from temporal and wash off assays; assay type: cell-based, Trypanosoma cruzi, Trypanosoma brucei brucei; details: for Speed of Action (FA/SA): TBB = T.b. brucei; for Speed of Action (Table 5): prioritised compounds, Fast/Slow
[7] = test system: T. cruzi; assay: T. cruzi temporal image-based assay, 24 h exposure; assay type: cell-based, Trypanosoma cruzi; details: for Emax / IC50: Trypanosoma cruzi; for IC50: read-out: IC50 24 h T. cruzi
[8] = test system: T.b. brucei; assay: T.b. brucei temporal viability (time-kill) assay, 48 h, PrestoBlue; assay type: cell-based, Trypanosoma brucei brucei; details: for Emax: read-out: Emax 48 h T.b. brucei (converted); for IC50: read-out: IC50 48 h T.b. brucei
[9] = NA = not active at given concentration

Row | SMILES | Fold Change of IC50, wash off vs 48 h [1] [fold] | IC50 ([1]; Trypanosoma cruzi) [nM] | Emax ([3]; Trypanosoma brucei) [%] | IC50 ([3]; Trypanosoma brucei) [nM] | SI (T.b. brucei) HEK [3] | SI (T.b. brucei) (HEP) [3] | Emax ([4]; Trypanosoma cruzi, TULAHUEN) [%] | IC50 ([4]; Trypanosoma cruzi, TULAHUEN) [µM] | SI (T. cruzi) 3T3 [4] | SI (T. cruzi) HEK [4] | SI (T. cruzi) (HEP) [4] | Emax ([5]; Trypanosoma brucei) [%] | IC50 ([5]; Trypanosoma brucei) [nM] | Speed of Action (FA/SA) ([6]; TC = T. cruzi) | Emax ([8]; Trypanosoma brucei) [%] | Emax % (T. cruzi) [4] [%] | IC50 [2] [µM] | Emax % (T.b. brucei) [3] [%] | IC50 [3] [nM] | IC50 [4] [µM] | other results
1 | O=C(Nc1ccc2c(c1)B(O)OC2)c1ccccc1C(F)(F)F [MMV 652003] | 3.4 | 510 ± 80 | 100 | 92 ± 2.7 | 74 | > 862 | 100 | 0.15 ± 0.004 | >487 | 45 | > 548 | 100 | 450 ± 67 | FA (Fast-acting (FA) = IC50 value can be determined following 24 h incubation, <10-fold difference in the IC50 value from 24 to 72 h) | 100 | – | – | – | – | – | Emax ([1]; Trypanosoma cruzi): 99%; IC50 ([2]; Homo sapiens): 6.8 ± 0.204 µM; Speed of Action (Table 5) [6]: Fast; Emax [7]: 93%; IC50 [7, 9]: 1280 ± 560 nM; IC50 ([8]; Trypanosoma brucei): 110 ± 12 nM
2 | CC[C@@H]([C@H](C)O)n1ncn(-c2ccc(N3CCN(c4ccc(OC[C@@H]5CO[C@@](Cn6cncn6)(c6ccc(F)cc6F)C5)cc4)CC3)cc2)c1=O [Posaconazole, reference compound] | 0.36 | 1.8 ± 0.078 | – | – | – | – | 73 | 0.0055 ± 4.1e-06 | >333 | – | – | – | – | SA (Slow-acting (SA) = IC50 value unable to be determined following 24 h incubation (no plateau of activity, or plateau of activity is <80% or IC50 value < 10 µM), or >10-fold difference in the IC50 value from 24 to 72 h) | – | 77 | – | – | – | – | Emax ([1]; Trypanosoma cruzi): 100%; Cidal / Static / Not efficacious ([6]; from wash off and 48 h Emax, TC = T. cruzi): Not efficacious (TC); IC50 24 h T. cruzi [7, 9]: NA at 1 µM
3 | CC1CCCCN1C(=O)NCCc1coc(-c2ccc(F)cc2)n1 (stereo not shown) [MMV 688797] | – | 380 ± 56 | 99 | 97 ± 2.1 | >814 (>814) | >814 (>814) | 100 | 0.51 ± 0.11 | >143 | >154 (>154) | >154 (>154) | 99 | 150 ± 29 | FA (Fast-acting (FA) = IC50 value can be determined following 24 h incubation, <10-fold difference in the IC50 value from 24 to 72 h) | 99 | – | – | – | – | – | Speed of Action (Table 5) [6]: Fast; Emax [7]: 86%; IC50 [7, 9]: 890 ± 135 nM; IC50 ([8]; Trypanosoma brucei): 100 ± 6.2 nM
4 | N=C(N)c1ccc(/N=N/Nc2ccc(C(=N)N)cc2)cc1 [Diminazene aceturate, reference compound] | – | – | 100 | 37 ± 0.41 | >1027 | – | – | – | – | – | – | 99 | 210 ± 58 | FA (Fast-acting (FA) = IC50 value can be determined following 24 h incubation, <10-fold difference in the IC50 value from 24 to 72 h) | 100 | – | – | – | – | – | IC50 HEK [2]: NA at 38 µM (NT); IC50 ([8]; Trypanosoma brucei): 70 ± 27 nM
5 | CC1CS(=O)(=O)CCN1/N=C/c1ccc([N+](=O)[O-])o1 (stereo not shown) [Nifurtimox, reference compound] | 0.60 | 350 ± 14 | – | – | – | – | 100 | 0.85 ± 0.048 | >149 | – | – | – | – | FA (Fast-acting (FA) = IC50 value can be determined following 24 h incubation, <10-fold difference in the IC50 value from 24 to 72 h) | – | – | – | – | – | – | IC50 [7, 9]: 1030 ± 76 nM
6 | O=C(Nc1ccc(N2CCNCC2)cc1)c1ccn2ncc(-c3cccc(Cl)c3)c2n1 [MMV 22478] | – | – | – | – | 8.0 | – | – | – | 1.04 | 2.03 (NT) | – | – | – | – | – | 100 | 12 ± 0.39 | 98 | 1500 ± 180 | 5.9 ± 1.3 | SI (T.b. brucei) HEK ([3]; listed as MMV022478): < 10; SI (T. cruzi) HEK ([4]; listed as MMV022478): < 10
7 | C[C@@H]1[C@H](O)[C@@H](C)/C=C/C=C/C=C/C=C/C=C/C=C/C=C/[C@H](O[C@@H]2O[C@H](C)[C@@H](O)[C@H](N)[C@@H]2O)C[C@@H]2O[C@](O)(C[C@@H](O)C[C@@H](O)[C@H](O)CC[C@@H](O)C[C@@H](O)CC(=O)O[C@H]1C)C[C@H](O)[C@H]2C(=O)O [Amphotericin B, reference compound] | – | – | 100 | 1500 ± 88 | >2.6 | – | – | – | – | – | – | 100 | 880 ± 163 | FA (Fast-acting (FA) = IC50 value can be determined following 24 h incubation, <10-fold difference in the IC50 value from 24 to 72 h) | 100 | – | – | – | – | – | IC50 HEK [2]: NA at 4.0 µM (NT); IC50 ([8]; Trypanosoma brucei): 260 ± 1.6 nM
8 | N=C(N)c1ccc(-c2cc(-c3ccccc3)on2)cc1 [MMV 688514] | – | – | – | – | 6.0 | – | – | – | 2.7 | 1.9 (NT) | – | – | – | – | – | 100 | 9.1 ± 0.46 | 99 | 1500 ± 27 | 4.9 ± 0.16 | SI (T.b. brucei) HEK ([3]; listed as MMV688514): < 10; SI (T. cruzi) HEK ([4]; listed as MMV688514): < 10
9 | CN1CCN(S(=O)(=O)c2ccc(-c3ccc4c(Nc5ncc(Cl)cn5)ccnc4c3)cc2)CC1 [MMV 688283] | 1.2 | – | – | – | >10 (>10) | >10 (>10) | – | – | >11 | >12 (>12) | >12 (>12) | – | – | SA (TC) | – | 100 | – | 99 | 7600 ± 270 | 6.6 ± 1.2 | Emax Wash Off [1]: 100%; IC50 [1]: 7600 ± 1500 nM; Emax % (T. cruzi) ([4]; listed as MMV688283): > 95%; Emax 24 h T.b. brucei [5]: 94%; IC50 [5]: 7800 ± 320 nM; Emax 48 h T.b. brucei [8]: 96%; IC50 [8]: 6200 ± 450 nM
10 | OCCc1ccc(Nc2nccc(-c3nnc4ccccn34)n2)cc1 [MMV 028694] | 1.2 | – | – | – | 12 | – | – | – | >7.8 | 1.0 (NT) | – | – | – | SA (TC) | – | 98 | 9.7 ± 0.05 | 100 | 830 ± 57 | 9.4 ± 1.8 | Emax Wash Off [1]: 98%; IC50 [1]: 12000 ± 1800 nM; Emax % (T. cruzi) ([4]; listed as MMV028694): > 95%; SI (T. cruzi) 3T3 ([4]; listed as MMV028694): > 7.8; SI (T. cruzi) HEK ([4]; listed as MMV028694): 1; Emax 24 h T.b. brucei [5]: 87%; IC50 [5]: 700 ± 190 nM; Emax 48 h T.b. brucei [8]: 100%; IC50 [8]: 710 ± 130 nM
11 | c1ccc(Oc2ccc(-c3cc(N4CCNCC4)[nH]n3)cc2)cc1 [MMV 687706] | – | – | – | – | 7.4 | – | – | – | >6.6 | 1.5 (NT) | – | – | – | – | – | 99 | 16.2 ± 5.2 | 99 | 2200 ± 2.8 | 11 ± 0.205 | –
12 | CN1CCC(NCc2cccc(-c3ccc(S(=O)(=O)NCc4ccccc4)cc3)c2)CC1 [MMV 22029] | – | – | – | – | 5.6 | – | – | – | 1.2 | 1.0 (NT) | – | – | – | – | – | 100 | 8.1 ± 0.054 | 99 | 1500 ± 59 | 8.2 ± 0.69 | SI (T.b. brucei) HEK ([3]; listed as MMV022029): < 10; SI (T. cruzi) HEK ([4]; listed as MMV022029): < 10
13 | Cc1cc(C2=NOC(c3cc(Cl)c(F)c(Cl)c3)(C(F)(F)F)C2)ccc1C(=O)NCc1ccc2c(c1)C(C)(C)OB2O (stereo not shown) [MMV 687776] | 1.0 | – | – | – | 3.0 | > 18 | – | – | >46 | 8.1 | > 50 | – | – | SA (TC) | – | 100 | 13 ± 1.6 | 99 | 4300 ± 1300 | 1.6 ± 0.38 | Emax Wash Off [1]: 100%; IC50 [1]: 1600 ± 64 nM; Emax % (T. cruzi) ([4]; listed as MMV687776): > 95%; SI (T. cruzi) 3T3 ([4]; listed as MMV687776): > 46; Emax 24 h T.b. brucei [5]: 89%; IC50 [5]: 5350 ± 103 nM; Emax 48 h T.b. brucei [8]: 99%; IC50 [8]: 4040 ± 1780 nM
